Measured values as given in patent publication US6579982B1, “Pyrimidine-2,4,6-trione metalloproteinase inhibitors” (Pfizer Inc., priority 1999, dated 2003).

Q: For CC1(Oc2ccc(Oc3ccccc3)cc2)C(=O)NC(=O)NC1=O, which melting point is on record?
A: 182 °C

Q: With CCCCC1(Oc2ccc(Oc3ccccc3)cc2)C(=O)NC(=O)NC1=O as the molecule, how does the melting point read?
A: 59 to 60 °C

Q: For CC1(Oc2ccc(Oc3ccc(F)cc3)cc2)C(=O)NC(=O)NC1=O, which melting point is on record?
A: 187 to 189 °C

Q: With CCCCC1(Oc2ccc(Oc3ccc(F)cc3)cc2)C(=O)NC(=O)NC1=O as the molecule, how does the melting point read?
A: 183 °C

Q: For CC1(Oc2cccc(-c3ccccc3)c2)C(=O)NC(=O)NC1=O, which melting point is on record?
A: 175 °C

Q: For CC1(Oc2ccc(-c3ccccc3)cc2)C(=O)NC(=O)NC1=O, which melting point is on record?
A: 200 to 202 °C
